MIC data for two molecules are collected here from ChEMBL document CHEMBL1649197, “New combinations of mutations in VanD-Type vancomycin-resistant Enterococcus faecium, Enterococcus faecalis, and Enterococcus avium strains” (2009).

Each structure is given as a SMILES string. Converted amounts (≈) assume the structure as drawn.

Format in all cases: functional
The subject of assay [1] is Enterococcus faecium. The assay can be described thus: Antimicrobial activity against Enterococcus faecium BM4458 harboring plasmid PAT833 carrying P2 vanSD (G340S) aac (6)-aph (2) mutant gene after 24 hrs. The note with it: BM4458, 24 h.
Assay [2] has as its system Enterococcus faecium. The assay can be described thus: Antimicrobial activity against vancomycin and teicoplanin resistant Enterococcus faecium BM4339 after 24 hrs. Particulars: BM4339, 24 h.
Assay [3] deals with Enterococcus faecium. The assay can be described thus: Antimicrobial activity against Enterococcus faecium BM4458 after 24 hrs. The note with it: BM4458, 24 h.
Assay [4] relates to Enterococcus faecium. As to the kind of experiment: Antimicrobial activity against Enterococcus faecium BM4458 harboring plasmid PAT830 carrying P2 vanSD (V67A) aac (6)-aph (2) mutant gene after 24 hrs. The note with it: BM4458, 24 h.
The subject of another assay is Enterococcus faecalis. The assay can be described thus: Antimicrobial activity against vancomycin and teicoplanin resistant Enterococcus faecalis BM4654 after 24 hrs. The note with it: BM4654, 24 h.
For assay [5], the system named is Enterococcus faecium. As to the kind of experiment: Antimicrobial activity against vancomycin and teicoplanin resistant Enterococcus faecium BM4653 after 24 hrs. The note with it: BM4653, 24 h.
The test system of assay [6] is Enterococcus faecium. As to the kind of experiment: Antimicrobial activity against vancomycin and teicoplanin resistant Enterococcus faecium NEF1 after 24 hrs. The note with it: NEF1, 24 h.
The test system of a further assay is Enterococcus avium. The assay can be described thus: Antimicrobial activity against vancomycin and teicoplanin resistant Enterococcus avium BM4655 after 24 hrs. Particulars: BM4655, 24 h.
Assay [7] concerns Enterococcus faecium. As to the kind of experiment: Antimicrobial activity against vancomycin and teicoplanin resistant Enterococcus faecium BM4656 after 24 hrs. The note with it: BM4656, 24 h.
The subject of assay [8] is Enterococcus faecium. The assay can be described thus: Antimicrobial activity against Enterococcus faecium BM4458 harboring plasmid PAT831 carrying P2 vanSD 6bp330 aac (6)-aph (2) mutant gene after 24 hrs. Particulars: BM4458, 24 h.
Assay [9] relates to Enterococcus faecium. As to the kind of experiment: Antimicrobial activity against Enterococcus faecium BM4458 harboring plasmid PAT832 carrying P2 vanSD (K308Q I309V R335Q) aac (6)-aph (2) mutant gene after 24 hrs. Particulars: BM4458, 24 h.

For orientation: MIC means the lowest concentration found to suppress growth.

For `CN[C@H](CC(C)C)C(=O)N[C@H]1C(=O)N[C@@H](CC(N)=O)C(=O)N[C@H]2C(=O)N[C@H]3C(=O)N[C@H](C(=O)N[C@H](C(=O)O)c4cc(O)cc(O)c4-c4cc3ccc4O)[C@H](O)c3ccc(c(Cl)c3)Oc3cc2cc(c3O[C@@H]2O[C@H](CO)[C@@H](O)[C@H](O)[C@H]2O[C@H]2C[C@](C)(N)[C@H](O)[C@H](C)O2)Oc2ccc(cc2Cl)[C@H]1O` [VANCOMYCIN], the MIC in the assay on Enterococcus faecium [1] worked out at 4 µg/mL (≈ 2.76 µM); in the assay on Enterococcus faecium [2], 64 µg/mL (≈ 44.2 µM); against Enterococcus faecium [3] it was 4 µg/mL (≈ 2.76 µM); against Enterococcus faecium [4], 4 µg/mL (≈ 2.76 µM); against Enterococcus faecalis, 16 µg/mL (≈ 11 µM); against Enterococcus faecium [5], 32 µg/mL (≈ 22.1 µM). For the same molecule, the MIC in the assay with Enterococcus faecium [6] worked out at 512 µg/mL (≈ 353 µM); in the assay with Enterococcus avium, 32 µg/mL (≈ 22.1 µM); in the assay with Enterococcus faecium [7], 32 µg/mL (≈ 22.1 µM); in the assay with Enterococcus faecium [8], 4 µg/mL (≈ 2.76 µM); in the assay with Enterococcus faecium [9], 4 µg/mL (≈ 2.76 µM).

As for `CC(=O)N[C@@H]1[C@H](Oc2c3cc4cc2Oc2ccc(cc2Cl)[C@@H](O[C@@H]2O[C@@H](CO)[C@@H](O)[C@H](O)[C@@H]2NC(C)=O)[C@@H]2NC(=O)[C@H](NC(=O)[C@@H]4NC(=O)[C@H]4NC(=O)[C@@H](Cc5ccc(c(Cl)c5)O3)NC(=O)[C@H](N)c3ccc(O)c(c3)Oc3cc(O)cc4c3)c3ccc(O)c(c3)-c3c(O[C@H]4O[C@H](CO)[C@@H](O)[C@@H](O)[C@@H]4O)cc(O)cc3[C@@H](C(=O)O)NC2=O)O[C@@H](CO)[C@@H](O)[C@@H]1O`, the MIC against Enterococcus faecium [1] worked out at 0.5 µg/mL (≈ 0.283 µM); against Enterococcus faecium [2] it was 4 µg/mL (≈ 2.26 µM); with Enterococcus faecium [3], 0.5 µg/mL (≈ 0.283 µM); against Enterococcus faecium [4], 0.5 µg/mL (≈ 0.283 µM); in the assay with Enterococcus faecalis, 0.5 µg/mL (≈ 0.283 µM); against Enterococcus faecium [5], 4 µg/mL (≈ 2.26 µM). In addition, the MIC is 64 µg/mL (≈ 36.2 µM) with Enterococcus faecium [6]; 4 µg/mL (≈ 2.26 µM) with Enterococcus avium; 4 µg/mL (≈ 2.26 µM) in the assay with Enterococcus faecium [7]; 0.5 µg/mL (≈ 0.283 µM) with Enterococcus faecium [8]; 0.5 µg/mL (≈ 0.283 µM) in the assay on Enterococcus faecium [9].
